# Laboratory results reported in US6495523B1, “Tricyclic monosaccharide derivatives useful in treating acute ischemia-induced neurodegeneration” (Ortho McNeil-Pharmaceutical, Inc., priority 1999, dated 2002).
# Tests used:
# Male Long-Evans rats = test: Neurologic assessment in rat cardiac arrest (global ischemia) model; assay type: in vivo; settings: conditions of Table 1
# Description: Male Long-Evans rats (250 g) were obtained from Charles River Laboratories, Portage, Mich. The neurologic function and seizure susceptibility of each animal was tested according to the methods described below. The rats were housed in the experimental laboratory for at least 24 h prior to study to avoid transit stress and to ensure a 24-h fasting period. Only rats with blood glucose levels of 100 mg/dL or less at the end of fasting were used in the experiments.
# General anesthesia was induced with ketamine (100 mg/kg, ip) and maintained with small fractional supplements as needed. Tracheal intubation was performed using a custom-made fiberoptic rodent laryngoscope and a 14-gauge polyethylene catheter. Needle electrodes were inserted in the scalp and thorax to monitor the EEG and ECG, respectively, while blood pressure was measured via an indwelling femoral arterial cannula. Body and brain temperatures were monitored by thermistors placed in the rectum and temporalis muscle, respectively. […]
# Neurologic assessment was identical to that described for the use with this model by Wauquier et al. (Neuropharmacology 1989; 28(8):837-846). […] In addition to the neurodeficit score, the angle of inclination at which the rat could no longer cling to the inclined plane was determined. Performance was quantified as percent of preinsult baseline.
# human epilepsy = settings: adjunctive therapy or monotherapy; clinical trials; cited from earlier work
Structure (SMILES),detrimental effect on exploratory behavior (effect in words) (Male Long-Evans rats),ischemia-induced neurological deficit (effect in words) (Male Long-Evans rats),efficacy in treating simple and complex partial seizures and secondarily generalized seizures (human epilepsy)
CC1(C)O[C@H]2[C@@H]3OS(=O)(=O)O[C@@H]3CO[C@@]2(COS(N)(=O)=O)O1 [RWJ-37947],significantly reduced,significantly reduced,–
"CC1(C)O[C@@H]2[C@@H](CO[C@@]3(COS(N)(=O)=O)OC(C)(C)O[C@@H]23)O1 [topiramate, 2,3:4,5-bis-O-(1-methylethylidene)-β-D-fructopyranose sulfamate]",–,–,effective
